According to patent publication US20250074891A1 (Anaxis Pharma Pty Ltd., priority 2021, published 2025):

How the values were obtained:
RIP1 = RIP1 (Homo sapiens (Human), UniProt Q13546); assay: KINOMEscan binding assay, RIP1; settings: Table 35
RIP3 = RIP3 (Homo sapiens (Human), UniProt Q9Y572); assay: KINOMEscan binding assay, RIP3; settings: Table 35
Method: Kinase assays. For most assays, kinase-tagged T7 phage strains were grown in parallel in 24-well blocks in an E. coli host derived from the BL21 strain. E. coli were grown to log-phase and infected with T7 phage from a frozen stock (multiplicity of infection=0.4) and incubated with shaking at 32° C. until lysis (90-150 minutes).
The Hill Slope was set to −1.

Sequence of RIP3 (Q9Y572 whole entry): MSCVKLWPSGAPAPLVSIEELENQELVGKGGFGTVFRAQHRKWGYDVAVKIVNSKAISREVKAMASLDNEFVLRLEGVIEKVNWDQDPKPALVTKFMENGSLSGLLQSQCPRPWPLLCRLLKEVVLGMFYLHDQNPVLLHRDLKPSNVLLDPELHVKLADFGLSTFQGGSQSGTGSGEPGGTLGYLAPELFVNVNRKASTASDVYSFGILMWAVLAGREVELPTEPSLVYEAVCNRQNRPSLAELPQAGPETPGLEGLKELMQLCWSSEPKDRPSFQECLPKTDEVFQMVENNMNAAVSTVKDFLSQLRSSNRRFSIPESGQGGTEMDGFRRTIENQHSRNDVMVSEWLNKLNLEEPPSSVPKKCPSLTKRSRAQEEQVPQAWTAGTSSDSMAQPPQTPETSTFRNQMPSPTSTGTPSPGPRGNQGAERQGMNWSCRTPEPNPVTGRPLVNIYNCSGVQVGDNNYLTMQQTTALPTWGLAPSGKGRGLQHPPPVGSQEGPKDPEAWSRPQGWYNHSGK
Sequence of RIP1 (Q13546 whole entry): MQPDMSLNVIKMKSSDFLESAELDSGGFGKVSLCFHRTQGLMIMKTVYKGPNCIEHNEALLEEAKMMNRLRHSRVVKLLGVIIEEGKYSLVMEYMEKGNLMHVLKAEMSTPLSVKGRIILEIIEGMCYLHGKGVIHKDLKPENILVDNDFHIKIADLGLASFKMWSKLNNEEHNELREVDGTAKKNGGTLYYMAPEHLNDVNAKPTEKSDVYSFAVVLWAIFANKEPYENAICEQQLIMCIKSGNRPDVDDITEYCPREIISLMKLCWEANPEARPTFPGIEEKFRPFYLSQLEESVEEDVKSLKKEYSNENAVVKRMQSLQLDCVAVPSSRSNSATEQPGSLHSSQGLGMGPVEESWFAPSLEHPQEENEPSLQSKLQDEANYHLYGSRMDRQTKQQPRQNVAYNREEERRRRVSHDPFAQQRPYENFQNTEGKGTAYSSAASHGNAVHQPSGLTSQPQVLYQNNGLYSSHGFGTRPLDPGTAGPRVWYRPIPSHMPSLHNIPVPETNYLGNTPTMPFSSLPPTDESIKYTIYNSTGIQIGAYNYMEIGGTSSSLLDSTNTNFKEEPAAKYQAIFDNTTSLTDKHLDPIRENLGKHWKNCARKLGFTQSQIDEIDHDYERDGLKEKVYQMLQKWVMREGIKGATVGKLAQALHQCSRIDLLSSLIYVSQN

Kd (RIP1) [µM] | Kd (RIP3) [µM] | Compound
> 30 | > 30 | CCS(=O)(=O)Nc1ccc(-c2n[nH]c(Nc3cncc(C(F)(F)F)n3)c2C(N)=O)cc1 [Compound 44, 3-(4-(ethylsulfonamido)phenyl)-5-((6-(trifluoromethyl)pyrazin-2-yl)amino)-1H-pyrazole-4-carboxamide]
> 30 | > 30 | CCS(=O)(=O)Nc1ccc(-c2n[nH]c(Nc3cnccn3)c2C(N)=O)cc1OCC1CCCN(C)C1 (centres unmarked) [Compound 187, 3-(4-(ethylsulfonamido)-3-((1-methylpiperidin-3-yl)methoxy)phenyl)-5-(pyrazin-2-ylamino)-1H-pyrazole-4-carboxamide]
> 30 | > 30 | CCS(=O)(=O)Nc1ccc(-c2n[nH]c(Nc3cnccn3)c2C(N)=O)cc1OCC1CCN(C(C)=O)CC1 [Compound 7, 3-(3-((1-acetylpiperidin-4-yl)methoxy)-4-(ethylsulfonamido)phenyl)-5-(pyrazin-2-ylamino)-1H-pyrazole-4-carboxamide]
> 30 | > 30 | CCS(=O)(=O)Nc1ccc(-c2n[nH]c(Nc3cnccn3)c2C(N)=O)c(OC)c1 [Compound 209, 3-(4-(ethylsulfonamido)-2-methoxyphenyl)-5-(pyrazin-2-ylamino)-1H-pyrazole-4-carboxamide]
> 30 | > 30 | CCS(=O)(=O)Nc1ccc(-c2n[nH]c(Nc3ccnc(C)n3)c2C(N)=O)cc1 [Compound 125, 3-(4-(ethylsulfonamido)phenyl)-5-((2-methylpyrimidin-4-yl)amino)-1H-pyrazole-4-carboxamide]
> 30 | > 30 | CCS(=O)(=O)Nc1ccc(-c2n[nH]c(Nc3cnccn3)c2C(N)=O)c(OCc2cccc(F)c2)c1 [Compound 208, 3-(4-(ethylsulfonamido)-2-((3-fluorobenzyl)oxy)phenyl)-5-(pyrazin-2-ylamino)-1H-pyrazole-4-carboxamide]
> 30 | > 30 | CCS(=O)(=O)Nc1ccc(-c2n[nH]c(Nc3cccc(C(F)(F)F)n3)c2C(N)=O)cc1OCc1ccc(F)cc1 [Compound 8, 3-(4-(ethylsulfon-amido)-3-((4-fluoro-benzyl)oxy)phenyl)-5-((6-(trifluoro-methyl)pyridin-2-yl)amino)-1H-pyrazole-4-carboxamide]
> 30 | > 30 | CCS(=O)(=O)Nc1ccc(-c2n[nH]c(Nc3cccnn3)c2C(N)=O)cc1 [Compound 64, 3-(4-ethanesulfonamidophenyl)-5-[(pyridazin-3-yl)amino]-1H-pyrazole-4-carboxamide]
> 30 | > 30 | CCCS(=O)(=O)Nc1ccc(-c2n[nH]c(Nc3cnccn3)c2C(N)=O)cc1 [Compound 97, 3-(4-(propylsulfonamido)phenyl)-5-(pyrazin-2-ylamino)-1H-pyrazole-4-carboxamide]
> 30 | > 30 | CCS(=O)(=O)Nc1ccc(-c2n[nH]c(Nc3cccc(C(F)(F)F)n3)c2C(N)=O)cc1OCC1CCCC1 [Compound 10, 3-(3-(cyclopentyl-methoxy)-4-(ethylsulfon-amido)phenyl)-5-((6-(trifluoro-methyl)pyridin-2-yl)amino)-1H-pyrazole-4-carboxamide]
> 30 | > 30 | CCS(=O)(=O)Nc1ccc(-c2n[nH]c(Nc3ccc(C(F)(F)F)cn3)c2C(N)=O)cc1OCc1ccc(F)cc1 [Compound 207]
> 30 | > 30 | CCS(=O)(=O)Nc1ccc(-c2n[nH]c(Nc3cccc(C(F)(F)F)n3)c2C(N)=O)cc1OCc1ccncc1 [Compound 16, 3-(4-(ethylsulfon-amido)-3-(pyridin-4-ylmethoxy)phenyl)-5-((6-(trifluoro-methyl)pyridin-2-yl)amino)-1H-pyrazole-4-carboxamide]
> 30 | > 30 | CCS(=O)(=O)Nc1ccc(-c2n[nH]c(Nc3cnccn3)c2C(N)=O)cc1OCc1cccc(C(F)(F)F)c1 [Compound 218, 3-(4-(ethylsulfonamido)-3-((3-(trifluoromethyl)benzyl)oxy)phenyl)-5-(pyrazin-2-ylamino)-1H-pyrazole-4-carboxamide]
